Experiment in all cases: NCI-60 cell line screen, 48 h
Test [1] concerns SK-OV-3 ovarian.
The subject of test [2] is UACC-257 melanoma.
Test [3] has as its system TK-10 renal.
The test system of test [4] is MOLT-4 leukemia.
Test [5] deals with OVCAR-4 ovarian.
Test [6] relates to CAKI-1 renal.
In test [7] the test system is MALME-3M melanoma.
In test [8] the test system is NCI-H522 lung.
Test [9] concerns NCI-H226 lung.

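Each compound was tested at five concentrations against cells in 96-well plates for 48 hours. GI50 marks 50% less growth. TGI marks complete inhibition of growth.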 Some results are limits rather than exact numbers.

For `C=CC/C(=C\COP(=O)(OCc1ccc([N+](=O)[O-])o1)N(C)CCCCCl)CC/C=C(\C)CCC=C(C)C` (stereo unspecified), the GI50 in test [1] is 16 µM; in [2], 16.5 µM; in test [3], 83.8 µM; in [4], 8.03 µM; in test [5], 17.2 µM; in test [6], 8.03 µM. In addition, the TGI is 30.6 µM in test [1]; 30 µM in test [2]; over 100 µM in test [3]; 36.3 µM in test [4]; 39.3 µM in test [5]; 21.2 µM in [6].
On to `CCOC(=O)c1c(C)nc2c(c1N)CC(=O)N2CCc1ccccc1`, for which the GI50 is 8.46 µM in test [1]; 1.31 µM in test [7]; 4.68 µM in [2]; 0.596 µM in test [3]; 0.822 µM in [4]; 1.48 µM in [5]. Moreover, the GI50 in [8] was 0.283 µM; in [9], 18.7 µM. The TGI is 36.7 µM in [1]; 4.9 µM in [7]; 19.4 µM in test [2]; 15 µM in [3]; 21.4 µM in [4]; 3.26 µM in test [5]. Moreover, the TGI in test [8] turned out to be 1.11 µM; in test [9], 69 µM.
Regarding `CC(/C=C/c1ccccc1)=N\NC(N)=S`, the TGI in test [1], in test [7], in test [2], in test [3], in test [4] and in test [9] was over 100 µM each time. For the same molecule, in test [6], the TGI is over 100 µM.
Regarding `COc1cc(C2C3=C(COC3=O)Nc3c2ccc2c3CCCC2)cc2c1OCO2` (stereo unspecified), the GI50 was 0.0311 µM in test [1]; 81.5 µM in [7]; 14.9 µM in test [3]; 0.13 µM in [4]; 0.121 µM in test [5]; 0.0239 µM in [8]. Besides, the values for the GI50 in [9] and in [6] were 0.0343 µM and 0.0775 µM, respectively. Further, the TGI in [1] is 0.103 µM; in [7] it was over 100 µM; in test [3], over 94.3 µM; in test [4], over 42.4 µM; in [5], over 100 µM; in test [8], 1.46 µM. The TGI was 0.185 µM in [9] and over 100 µM in [6].
On to `NCCOc1ccccc1/C=C1\c2ccccc2-c2ccc([N+](=O)[O-])cc21`, for which the GI50 in [1] is 1.7 µM; in test [7] it was 1.5 µM; in test [2], 1.7 µM; in test [5], 1.79 µM; in test [8], 1.49 µM; in [9], 1.73 µM. Besides, the GI50 in test [6] was 1.38 µM. Further, the TGI in [1] turned out to be 3.13 µM; in test [7], 2.91 µM; in test [2], 3.31 µM; in test [5] it was 3.27 µM; in test [8], 3.05 µM; in [9], 3.48 µM. Also, the TGI in test [6] came out at 2.72 µM.
`COc1ccc2c(Cl)cc(NC(=O)Nc3c(C)cccc3C)nc2c1`: the GI50 was 4.37 µM in [1]; 10.2 µM in test [7]; 20 µM in test [2]; 11.2 µM in test [3]; 45.9 µM in test [4]; over 100 µM in [8]. Moreover, the GI50 in [9] is 2.29 µM; in [6], 5.27 µM. Also, the TGI in test [1] is 83 µM; in [7] it was 58.5 µM; in test [2], over 100 µM; in [3], 58.2 µM; in test [4], over 100 µM; in [8], over 100 µM. The results for the TGI in test [9] and in test [6] were 6.14 µM and over 100 µM, respectively.
For `Cc1cc(C(=O)O)c(C)n1-c1cccc(C(=O)O)c1`, the GI50 in [1], in [7], in test [2], in test [3], in test [4] and in test [5] was over 100 µM in each case. For the same molecule, the GI50 in test [8] and in [9] was over 100 µM in each case. The TGI in test [1], in test [7], in test [2], in [3], in [4] and in [5] was over 100 µM throughout. In addition, the TGI in test [8] and in test [9] was over 100 µM throughout.
As to `C#CC1(O)c2ccccc2C(=O)c2ccccc21`, the TGI in test [7], in test [2], in test [3], in test [4], in test [5] and in test [8] was over 100 µM in each case. In addition, the TGI in test [9] and in test [6] was over 100 µM each time.
Consider `COC1C(OC(=O)/C=C/C=C/C=C/C=C\C(=O)O)CCC2(CO2)C1C1(C)OC1CC=C(C)C` (stereo unspecified), for which the GI50 in test [1], in [3], in test [4], in [5], in test [8] and in test [9] was over 200 µM in each case. The GI50 in test [6] is over 200 µM. Besides, the TGI in test [1], in [7], in test [3], in test [4], in [5] and in [8] was over 200 µM throughout. For the same molecule, the TGI in test [9] and in [6] was over 200 µM in each case.
As for `C=C(CC(=O)O)C(=O)O` (tested in a mixture with another compound), the GI50 in test [1], in test [7], in [2], in test [3], in test [4] and in test [8] was over 50 µg/mL throughout. Moreover, the GI50 in [9] and in [6] was over 50 µg/mL in each case. The TGI in test [1], in test [7], in test [2], in test [3], in test [4] and in [8] was over 50 µg/mL each time. The TGI in test [9] and in test [6] was over 50 µg/mL each time.

Values taken from PubChem BioAssay (NCI).
